From US9957267B2, “Somatostatin modulators and uses thereof” (Crinetics Pharmaceuticals, Inc., priority 2015, dated 2018)

Legend:
Assay type in all cases: cell-based
[1] = molecular target: T1, human somatostatin receptor subtype 2a (Homo sapiens, UniProt P30874); test: cAMP assay for SSTR2a agonists (HTRF cAMP kit, NKH-477 stimulated); conditions: CHO cells stably expressing human SSTR2a, 1.6 μM NKH-477
T1 construct: expressed in transfected cells

SSTR1 = molecular target: T2, SSTR1 (Homo sapiens, UniProt P30872); test: cAMP functional agonist assay, CHO cells expressing SSTR1; conditions: CHO cells stably expressing SSTR1, cAMP; read-out: SSTR1 EC50
T2 construct: expressed in transfected cells
T2 sequence (P30872 whole entry): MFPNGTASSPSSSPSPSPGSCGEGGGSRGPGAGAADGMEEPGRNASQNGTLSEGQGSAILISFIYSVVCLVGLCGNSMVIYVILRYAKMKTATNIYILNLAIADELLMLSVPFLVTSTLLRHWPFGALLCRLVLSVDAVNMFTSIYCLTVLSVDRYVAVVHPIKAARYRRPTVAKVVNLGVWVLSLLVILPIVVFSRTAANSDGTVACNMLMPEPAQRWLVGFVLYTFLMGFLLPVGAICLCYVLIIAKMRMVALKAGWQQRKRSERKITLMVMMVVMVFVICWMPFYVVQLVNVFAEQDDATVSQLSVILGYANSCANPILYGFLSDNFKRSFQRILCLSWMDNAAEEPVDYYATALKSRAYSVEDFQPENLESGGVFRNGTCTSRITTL
Method in brief: (§1)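 CHO cells stably expressing the human or rodent somatostatin receptor subtype. Agonism measured as decrease in intracellular cAMP via Gi coupling.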

SSTR3 = SSTR3 (UniProt P32745); test: cAMP functional agonist assay, CHO cells expressing SSTR3; conditions: CHO cells stably expressing SSTR3, cAMP
Chain of SSTR3 (P32745 whole entry): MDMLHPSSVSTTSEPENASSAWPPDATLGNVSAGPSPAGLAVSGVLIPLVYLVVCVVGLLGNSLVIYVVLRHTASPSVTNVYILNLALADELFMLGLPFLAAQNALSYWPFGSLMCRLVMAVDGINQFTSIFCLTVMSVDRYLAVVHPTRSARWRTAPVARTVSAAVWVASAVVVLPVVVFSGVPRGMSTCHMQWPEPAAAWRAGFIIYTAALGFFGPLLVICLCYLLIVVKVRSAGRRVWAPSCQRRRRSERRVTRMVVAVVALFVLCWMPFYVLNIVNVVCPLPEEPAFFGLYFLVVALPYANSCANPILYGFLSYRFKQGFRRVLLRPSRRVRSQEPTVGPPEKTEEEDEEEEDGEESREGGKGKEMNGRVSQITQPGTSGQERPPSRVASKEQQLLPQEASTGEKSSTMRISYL
Method in brief: (§2)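 CHO cells stably expressing a single somatostatin receptor subtype, grown to 85–100% confluence in F12-Ham's with 10% donor calf serum and hygromycin. Agonism assessed as a decrease in intracellular cAMP via Gi coupling.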

SSTR4 = molecular target: T3, SSTR4 (Homo sapiens, UniProt P31391); test: cAMP functional agonist assay, CHO cells expressing SSTR4; conditions: CHO cells stably expressing SSTR4, cAMP; read-out: SSTR4 EC50
T3 construct: expressed in transfected cells
T3 sequence (P31391 whole entry): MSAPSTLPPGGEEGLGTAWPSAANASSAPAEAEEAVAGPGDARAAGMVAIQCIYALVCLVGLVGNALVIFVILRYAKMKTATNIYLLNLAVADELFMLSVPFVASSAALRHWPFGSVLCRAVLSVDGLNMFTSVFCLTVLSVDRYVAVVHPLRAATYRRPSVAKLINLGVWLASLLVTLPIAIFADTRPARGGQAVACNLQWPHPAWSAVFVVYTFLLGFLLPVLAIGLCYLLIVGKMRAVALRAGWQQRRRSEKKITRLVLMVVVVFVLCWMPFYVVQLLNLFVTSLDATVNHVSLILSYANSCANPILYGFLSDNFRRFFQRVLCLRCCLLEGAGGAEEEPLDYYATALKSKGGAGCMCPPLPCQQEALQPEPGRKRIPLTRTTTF
Method in brief: as §1

SSTR5 = molecular target: T4, SSTR5 (Homo sapiens, UniProt P35346); test: cAMP functional agonist assay, CHO cells expressing SSTR5; conditions: CHO cells stably expressing SSTR5, cAMP
T4 construct: expressed in transfected cells
T4 sequence (P35346 whole entry): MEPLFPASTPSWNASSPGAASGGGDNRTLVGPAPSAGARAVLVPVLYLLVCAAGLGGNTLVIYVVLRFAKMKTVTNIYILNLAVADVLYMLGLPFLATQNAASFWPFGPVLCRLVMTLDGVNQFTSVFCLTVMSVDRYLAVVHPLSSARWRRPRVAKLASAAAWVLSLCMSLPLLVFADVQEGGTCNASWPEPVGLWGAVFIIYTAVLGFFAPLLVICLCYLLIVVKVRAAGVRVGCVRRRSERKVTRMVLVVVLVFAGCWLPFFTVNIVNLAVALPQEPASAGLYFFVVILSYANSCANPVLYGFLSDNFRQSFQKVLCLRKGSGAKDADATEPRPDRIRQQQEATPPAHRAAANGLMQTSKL
Method in brief: as §2

T1 sequence (P30874 whole entry): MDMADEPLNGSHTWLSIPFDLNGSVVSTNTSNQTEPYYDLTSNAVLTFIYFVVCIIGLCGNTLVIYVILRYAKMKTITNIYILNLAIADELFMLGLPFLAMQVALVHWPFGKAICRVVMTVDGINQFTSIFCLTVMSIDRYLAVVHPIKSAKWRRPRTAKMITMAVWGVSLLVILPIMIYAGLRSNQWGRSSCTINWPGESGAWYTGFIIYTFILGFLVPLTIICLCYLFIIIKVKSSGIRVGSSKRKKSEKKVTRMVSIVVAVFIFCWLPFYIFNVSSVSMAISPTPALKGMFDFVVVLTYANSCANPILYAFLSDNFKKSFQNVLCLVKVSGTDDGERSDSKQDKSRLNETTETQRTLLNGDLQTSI

Compound	EC50 [1] [nM]	EC50 (SSTR1) [nM]	EC50 (SSTR3) [nM]	EC50 (SSTR4) [nM]	EC50 (SSTR5) [nM]
CC[C@H](N)CN(C)Cc1c(-c2cc(C)cc(Cl)c2)cnc2ncn(-c3cc(O)cc(C(F)(F)F)c3)c(=O)c12 [Compound A-65, 5-({[(2S)-2-aminobutyl](methyl)amino}methyl)-6-(3-chloro-5-methylphenyl)-3-[3-hydroxy-5-(trifluoromethyl)phenyl]-3H,4H-pyrido[2,3-d]pyrimidin-4-one]	< 100	100 to 10000	< 100	< 100	100 to 10000
CCOC(=O)CNCCN(CC)Cc1c(-c2cc(C)cc(C)c2)cnc2ncn(-c3cccc(O)c3)c(=O)c12 [Compound A-68]	100 to 10000	> 10000	> 10000	100 to 10000	> 10000
Cc1cc(C)c(F)c(-c2cnc3ncn(-c4cccc(O)c4)c(=O)c3c2CN(C)CC2CCCCN2)c1 (stereo not drawn) [Compound A-70, 6-(2-Fluoro-3,5-dimethyl-phenyl)-3-(3-hydroxy-phenyl)-5-[(methyl-piperidin-2-ylmethyl-amino)-methyl]-3H-pyrido[2,3-d]pyrimidin-4-one]	< 100	100 to 10000	< 100	< 100	100 to 10000
